Key:
GUK1 patient fibroblasts = test: mtDNA content of proliferating GUK1 patient fibroblasts (quantitative Real-Time PCR, mtDNA/nDNA); format: cell-based, human; settings: three different GUK1 patient proliferating fibroblasts, FIG. 3B
Procedure: Levels of mtDNA were measured by quantitative Real-Time PCR (in triplicate) and expressed as mtDNA/nDNA (12S/RNase P) and levels are expressed as percent relative to control fibroblast mtDNA. * indicates p<0.05. P values determined by Mann-Whitney U test. Initially, GUK1 mutant patient fibroblasts will be supplemented with dG. Based on published reports of deoxynucleoside supplementation for rescue of other models of mtDNA depletion, fibroblast culture media will be supplemented with dG at concentrations ranging from 1 μM to 400 μM (Camara, et al. 2014; Pontarin, et al. 2012; […], et al. 2003; Bulst, et al. 2012). Throughout each experiment, fibroblasts will be actively proliferating to emphasize use of the de novo dNTP synthesis pathway. The primary outcome measure will be mtDNA copy number comparing untreated and dG-supplemented fibroblasts. To complement the mtDNA results, it will be determined whether the mitochondrial dGTP concentration increases with dG supplementation by measuring mitochondrial dNTP pools. As a functional measure of mitochondrial rescue in treated fibroblasts, we will also measure OxPhos activity.

[1] = mice; cited from earlier work
[2] = test system: dGK-deficient fibroblasts; settings: cited from earlier work

SMILES | mtDNA as compared to untreated (GUK1 patient fibroblasts; dG at 1 μM alone) | circulating dG [1] | mtDNA as compared to untreated (GUK1 patient fibroblasts; forodesine at 1 mM alone) | efficacy of purine supplementation [2]
Nc1nc2c(ncn2[C@H]2C[C@H](O)[C@@H](CO)O2)c(=O)[nH]1 [dG, deoxyguanosine] | increase |  |  | 
O=c1[nH]cnc2c([C@@H]3N[C@H](CO)[C@@H](O)[C@H]3O)c[nH]c12 [forodesine] |  | can increase circulating dG | increase | enhances the efficacy of purine supplementation

From patent publication US20260021132A1, “PHARMACOLOGICAL THERAPY FOR MITOCHONDRIAL DNA DEPLETION DELETIONS SYNDROME INVOLVING MUTATIONS IN THE GUK1 GENE” (The Trustees of Columbia University in the City of New York, priority 2023, published 2026)
